Source: ChEMBL document CHEMBL1128274, “6-Aminoquinolones: a new class of quinolone antibacterials?” (1995)
Converted amounts (≈) assume the structure as drawn.

Tests used:
Format in all cases: functional
[1] = tested on: Staphylococcus epidermidis; assay: Tested in vitro for inhibitory activity against gram positive bacteria Staphylococcus epidermidis HCF berset C strain
Escherichia coli [2] = assay: Tested in vitro for inhibitory activity against gram negative bacteria Escherichia coli ATCC 8739 cell lines
Staphylococcus aureus [3] = assay: Tested in vitro for inhibitory activity against gram positive bacteria Staphylococcus aureus ATCC 6538 strain
[4] = tested on: Acinetobacter calcoaceticus; assay: Tested in vitro for inhibitory activity against gram negative bacteria Acinetobacter calcoaceticus OSMPV 113 strain.
Escherichia coli [5] = assay: Tested in vitro for inhibitory activity against gram negative bacteria Escherichia coli ISF 432 strain.
[6] = tested on: Staphylococcus epidermidis; assay: Tested in vitro for inhibitory activity against gram positive bacteria Staphylococcus epidermidis CPHL A2 strain
Klebsiella pneumoniae = assay: Tested in vitro for inhibitory activity against gram negative bacteria Klebsiella pneumoniae ATCC 10031 strain
Enterobacter cloacae = assay: Tested in vitro for inhibitory activity against gram negative bacteria Enterobacter cloacae OMNFI 174 strain.
Shigella = assay: Tested in vitro for inhibitory activity against gram negative bacteria Shigella enteritidis
Providencia stuartii [7] = assay: Tested in vitro for inhibitory activity against gram negative bacteria Providencia stuartii CNUR 5 strain
Staphylococcus aureus [8] = assay: Tested in vitro for inhibitory activity against gram positive bacteria Staphylococcus aureus MPR 5 strain
Enterococcus faecalis = assay: Tested in vitro for inhibitory activity against gram positive bacteria Streptococcus faecalis LEP Br strain
Pseudomonas aeruginosa = assay: Tested in vitro for inhibitory activity against gram negative bacteria Pseudomonas aeruginosa ATCC 9027 strain
Providencia stuartii [9] = assay: Tested in vitro for inhibitory activity against gram negative bacteria Providencia stuartii CNUR 5 cell lines
Escherichia coli [10] = assay: Tested in vitro for inhibitory activity against gram negative bacteria Escherichia coli ATCC 8739 strain
Escherichia coli [11] = assay: Tested in vitro for inhibitory activity against gram negative bacteria Escherichia coli ISF 432 cell lines at 5.8 ug/mL
Escherichia coli [12] = assay: Tested in vitro for inhibitory activity against gram negative bacteria Escherichia coli ATCC 8739 cell lines at 5.8 ug/mL
Escherichia coli [13] = assay: Tested in vitro for inhibitory activity against gram negative bacteria Escherichia coli ATCC 8739 strain at 25 ug/mL
Escherichia coli [14] = assay: Tested in vitro for inhibitory activity against gram negative bacteria Escherichia coli ISF 432 strain at 25 ug/mL
Escherichia coli [15] = assay: Tested in vitro for inhibitory activity against gram negative bacteria Escherichia coli ATCC 8739 cell lines at 10 ug/mL
Escherichia coli [16] = assay: Tested in vitro for inhibitory activity against gram negative bacteria Escherichia coli ISF 432 cell lines at 10 ug/mL
[17] = Minimum concentration at which cleaved linear DNA is observed

Structure (SMILES) | MIC [1] [µg/mL] | MIC (Escherichia coli [2]) [µg/mL] | MIC (Staphylococcus aureus [3]) [µg/mL] | MIC [4] [µg/mL] | MIC (Escherichia coli [5]) [µg/mL] | MIC [6] [µg/mL] | MIC (Klebsiella pneumoniae) [µg/mL] | MIC (Enterobacter cloacae) [µg/mL] | MIC (Shigella) [µg/mL] | MIC (Providencia stuartii [7]) [µg/mL] | MIC (Staphylococcus aureus [8]) [µg/mL] | MIC (Enterococcus faecalis) [µg/mL] | MIC (Pseudomonas aeruginosa) [µg/mL] | other results
CN1CCN(c2c(N)c(N)c3c(=O)c(C(=O)O)cn(C4CC4)c3c2F)CC1 | 4 (≈ 10.7 µM) | 0.03 (≈ 0.0799 µM) | 2 (≈ 5.33 µM) | 2 (≈ 5.33 µM) | 0.03 (≈ 0.0799 µM) | 4 (≈ 10.7 µM) | 0.03 (≈ 0.0799 µM) | 0.12 (≈ 0.32 µM) | 0.25 (≈ 0.666 µM) | 2 (≈ 5.33 µM) | 2 (≈ 5.33 µM) | 4 (≈ 10.7 µM) | 4 (≈ 10.7 µM) | 
CN1CCN(c2cc3c(c(N)c2N)c(=O)c(C(=O)O)cn3C2CC2)CC1 | 128 (≈ 358 µM) | 16 (≈ 44.8 µM) | 128 (≈ 358 µM) | 128 (≈ 358 µM) | 16 (≈ 44.8 µM) | 128 (≈ 358 µM) | 32 (≈ 89.5 µM) | 128 (≈ 358 µM) | 128 (≈ 358 µM) | 128 (≈ 358 µM) | 128 (≈ 358 µM) | 128 (≈ 358 µM) | 128 (≈ 358 µM) | 
Nc1cc2c(=O)c(C(=O)O)cn(C3CC3)c2cc1Cl | 64 (≈ 230 µM) |  | 128 (≈ 459 µM) | 128 (≈ 459 µM) | 2 (≈ 7.18 µM) | 128 (≈ 459 µM) | 2 (≈ 7.18 µM) | 16 (≈ 57.4 µM) | 16 (≈ 57.4 µM) |  | 128 (≈ 459 µM) | 128 (≈ 459 µM) | 128 (≈ 459 µM) | MIC (Providencia stuartii [9]): 64 µg/mL (≈ 230 µM); MIC (Escherichia coli [10]): 2 µg/mL (≈ 7.18 µM)
Nc1cc2c(=O)c(C(=O)O)cn(C3CC3)c2c(F)c1N1CCSCC1 | 1 (≈ 2.75 µM) |  | 0.5 (≈ 1.38 µM) | 1 (≈ 2.75 µM) |  | 0.5 (≈ 1.38 µM) | 0.03 (≈ 0.0826 µM) | 1 (≈ 2.75 µM) | 4 (≈ 11 µM) | 0.5 (≈ 1.38 µM) | 0.25 (≈ 0.688 µM) | 4 (≈ 11 µM) | 4 (≈ 11 µM) | MIC (Escherichia coli [11]): 0.06 µg/mL (≈ 0.165 µM); MIC (Escherichia coli [12]): 0.12 µg/mL (≈ 0.33 µM)
CN1CCN(c2cc3c(cc2N)c(=O)c(C(=O)O)cn3C2CC2)CC1 | 4 (≈ 11.7 µM) |  | 2 (≈ 5.84 µM) | 4 (≈ 11.7 µM) |  | 2 (≈ 5.84 µM) | 0.03 (≈ 0.0876 µM) | 0.25 (≈ 0.73 µM) | 0.25 (≈ 0.73 µM) | 8 (≈ 23.4 µM) | 2 (≈ 5.84 µM) | 32 (≈ 93.5 µM) | 4 (≈ 11.7 µM) | MIC (Escherichia coli [13]): 0.25 µg/mL (≈ 0.73 µM); MIC (Escherichia coli [14]): 0.03 µg/mL (≈ 0.0876 µM)
Nc1cc2c(=O)c(C(=O)O)cn(C3CC3)c2cc1N1CCSCC1 | 2 (≈ 5.79 µM) |  | 0.5 (≈ 1.45 µM) | 1 (≈ 2.89 µM) |  | 1 (≈ 2.89 µM) | 0.03 (≈ 0.0868 µM) | 0.5 (≈ 1.45 µM) | 0.5 (≈ 1.45 µM) | 1 (≈ 2.89 µM) | 0.5 (≈ 1.45 µM) | 8 (≈ 23.2 µM) | 2 (≈ 5.79 µM) | MIC (Escherichia coli [15]): 0.03 µg/mL (≈ 0.0868 µM); MIC (Escherichia coli [16]): 0.03 µg/mL (≈ 0.0868 µM)
Nc1cc2c(=O)c(C(=O)O)cn(C3CC3)c2cc1NC1CC1 | 128 (≈ 428 µM) | 2 (≈ 6.68 µM) | 128 (≈ 428 µM) | 128 (≈ 428 µM) | 4 (≈ 13.4 µM) | 128 (≈ 428 µM) | 2 (≈ 6.68 µM) | 64 (≈ 214 µM) | 64 (≈ 214 µM) | 128 (≈ 428 µM) | 128 (≈ 428 µM) | 128 (≈ 428 µM) | 128 (≈ 428 µM) | 
CC(C)(C)n1cc(C(=O)O)c(=O)c2cc(N)c(N3CCSCC3)cc21 | 0.5 (≈ 1.38 µM) |  | 0.25 (≈ 0.692 µM) | 0.5 (≈ 1.38 µM) |  | 0.5 (≈ 1.38 µM) | 0.03 (≈ 0.083 µM) | 2 (≈ 5.53 µM) | 2 (≈ 5.53 µM) | 4 (≈ 11.1 µM) | 0.25 (≈ 0.692 µM) | 8 (≈ 22.1 µM) | 4 (≈ 11.1 µM) | MIC (Escherichia coli [11]): 0.03 µg/mL (≈ 0.083 µM); Concentration [17]: 5.8 µg/mL; MIC (Escherichia coli [12]): 0.06 µg/mL (≈ 0.166 µM)
